Results reported in patent publication US6579880B2, “Isoxazoles and oxadiazoles as anti-inflammatory inhibitors of IL-8” (Ortho-McNeil Pharmaceutical, Inc., priority 2000, dated 2003).
Read-outs that look alike come from different tables or passages of the source.

Test system: IL-8 receptor (purified human neutrophils)
Test: radio labeled IL-8 receptor binding assay in purified human neutrophils using I125-IL-8 as ligand
Description: Neutrophils are purified from fresh human blood by dextran sedimentation in an equal volume of 3% dextran in saline for 30 minutes. After sedimentation, the blood is centrifuged for 10 minutes at 1000 rpm at 4° C. and the supernate is aspirated and discarded. […] Ten mls ficoll is underlaid of the blood and the sample is centrifuged for 40 minutes at 1400 rpm at 25° C. After centrifugation, the supernate is removed and the cells re-suspended for cell counting. Cell volume is adjusted to 8×10^5 cells/ml in binding buffer without BSA.
The plates are then incubated at 37° C. for 60 minutes and the supernate is aspirated to within 2 mm of the bottom of the well. The plates are then sealed and counted for 1 minute in a Packard TopCount.
Drug treated wells are compared to vehicle treated wells for inhibition of binding as determined by a decrease in dpm as compared to the vehicle wells.
% Inhibition is calculated as follows: [formula]
IC50 is calculated using K-Graph.

[1] = Table 1, inhibition of I125-IL-8 (0.125 nM) binding to human neutrophils, 37° C. 60 minutes, read-out: IC50
[2] = Table 2, inhibition of I125-IL-8 (0.125 nM) binding to human neutrophils, 37° C. 60 minutes, read-out: IC50
[3] = Table 3, inhibition of I125-IL-8 (0.125 nM) binding to human neutrophils, 37° C. 60 minutes, read-out: IC50
[4] = Table 4, inhibition of I125-IL-8 (0.125 nM) binding to human neutrophils, 37° C. 60 minutes, read-out: IC50
[5] = Table 6, inhibition of I125-IL-8 (0.125 nM) binding to human neutrophils, 37° C. 60 minutes, read-out: IC50

IC50 [2] [µM] | Molecule | further results
 | CN1CCN(CCCOc2ccc(-c3cc(-c4ccc(C(C)(C)C)cc4)no3)cc2)CC1 [Compound 4, piperazine, 1-[3-[4-[3-[4-(1,1-dimethylethyl)phenyl]-5-isoxazolyl]phenoxy]propyl]-4-methyl-] | IC50 [1]: 2.7 µM
 | CN1CCN(CCCOc2ccc(-c3cc(-c4ccc(Cl)c(C(F)(F)F)c4)no3)cc2)CC1 [Compound 8, piperazine, 1-[3-[4-[3-[4-chloro-3-(trifluoromethyl)phenyl]-5-isoxazolyl]phenoxy]propyl]-4-methyl-] | IC50 [1]: 2.7 µM
 | Clc1ccc(-c2noc(-c3ccc(OCCCN4CCNCC4)cc3)n2)cc1 [Compound 15, piperazine, 1-[3-[4-[3-(4-chlorophenyl)-1,2,4-oxadiazol-5-yl]phenoxy]propyl]-] | IC50 [1]: 2.8 µM
5.1 | Cc1ccc(-c2cc(-c3ccc(OCCCN(C)C)cc3)no2)cc1 [Compound 19] | 
2.7 | CN(C)CCCOc1ccc(-c2cc(-c3ccc(Cl)cc3)on2)cc1 [Compound 21, 1-propanamine, 3-[4-[5-(4-chlorophenyl)-3-isoxazolyl]phenoxy]-N, N-dimethyl-] | 
3.1 | CN(C)CCCOc1ccc(-c2cc(-c3ccc(F)cc3)on2)cc1 [Compound 22] | 
6.2 | CN1CCN(CCCOc2ccc(-c3cc(-c4ccccc4)on3)cc2)CC1 [Compound 25] | 
1.6 | CN1CCN(CCCOc2ccc(-c3cc(-c4ccc(Cl)cc4)on3)cc2)CC1 [Compound 27, piperazine, 1-[3-[4-[5-(4-chlorophenyl)-3-isoxazolyl]phenoxy]propyl]-4-methyl-] | 
10.9 | CN(C)CCCOc1ccc(-c2noc(-c3ccccc3)c2Br)cc1 [Compound 28] | 
6 | CN(C)CCCOc1ccc(-c2noc(-c3ccccc3)c2Cl)cc1 [Compound 29] | 
8.1 | CN(C)CCCOc1cccc(-c2cc(-c3ccc(Cl)cc3)on2)c1 [Compound 32] | 
5.1 | Cc1ccc(-c2cc(-c3cccc(OCCCN(C)C)c3)no2)cc1 [Compound 33] | 
10.3 | CN(C)CCCOc1cccc(-c2cc(-c3ccccc3)on2)c1 [Compound 34] | 
12.1 | CN1CCN(CCCOc2ccccc2-c2cc(-c3ccccc3)on2)CC1 [Compound 35] | 
5.6 | CN1CCN(CCCOc2ccccc2-c2cc(-c3ccc(Cl)cc3)on2)CC1 [Compound 36] | 
6.5 | CCN(CC)CCCOc1ccccc1-c1cc(-c2ccccc2)on1 [Compound 37] | 
4.4 | CN(C)CCCOc1ccccc1-c1cc(-c2ccc(Cl)cc2)on1 [Compound 38] | 
8.9 | CN1CCN(CCCCOc2ccc(-c3cc(-c4ccc(Cl)cc4)on3)cc2)CC1 [Compound 39] | 
3.9 | CN(C)CCCCOc1ccc(-c2cc(-c3ccc(Cl)cc3)on2)cc1 [Compound 40] | 
11 | CN1CCN(CCCCOc2ccccc2-c2cc(-c3ccc(Cl)cc3)on2)CC1 [Compound 41] | 
 | CN1CCCC(COc2ccc(-c3cc(-c4ccccc4)on3)cc2)C1 (stereo not shown) [Compound 43] | IC50 [3]: 5.3 µM
 | CN1CCC(Oc2ccc(-c3cc(-c4ccccc4)on3)cc2)CC1 [Compound 44] | IC50 [3]: 7.6 µM
 | CN(C)CCCNC(=O)c1ccc(-c2cc(-c3ccc(Cl)cc3)on2)cc1 [Compound 45] | IC50 [4]: 5.8 µM
 | CN1CCN(CCCNC(=O)c2ccc(-c3cc(-c4ccc(Cl)cc4)on3)cc2)CC1 [Compound 46] | IC50 [4]: 6.1 µM
 | COc1ccc(-c2cc(-c3ccc(C(=O)NCCCN(C)C)cc3)no2)cc1 [Compound 48] | IC50 [4]: 18.1 µM
 | CN(C)CCCNc1ccc(-c2nc(-c3ccc(Cl)cc3)no2)cn1 [Compound 54, 1,3-propanediamine, N^1-[5-[3-(4-chlorophenyl)-1,2,4-oxadiazol-5-yl]-2-pyridinyl]-N^3, N^3-dimethyl-] | IC50 [5]: 5.35 µM
 | CN(C)CCCOc1ccc(-c2nc(-c3ccc(Cl)cc3)no2)cn1 [Compound 55] | IC50 [5]: 4.78 µM
 | Unlabelled IL-8: Unlabelled IL-8 (Interleukin-8, chemotactic cytokine) serves as the standard antagonist in the binding assay [reference compound] | IC50 (unlabelled IL-8 as standard in the I125-IL-8 binding assay, read-out: IC50 of standard antagonist): ~0.001 µM
